We go through four molecules from patent publication US4659859A, “2-alkoxy-1-alkoxy phosphoryl dichlorides” (priority 1986, dated 1987).

The test system of one data set is leukemic cells. The conditions noted are these: Tidwell et al., Blood, 57, 794 (1981); cited from earlier work.
Data set [1] deals with spontaneously hypertensive rats (SHR). Kind of data set: Blood pressure and heart rate in spontaneously hypertensive rats, tail cuff method. The data set is classed as in vivo, rat. The conditions noted are these: administered subcutaneously, various dose levels. The text has this: (§1) The above compounds are also active in lowering the blood pressure of spontaneously hypertensive rats (SHR). […] In the table, column 1 gives the compound used, column 2 the dose level, column 3, the route of administration, column 4, number of rats, column 5, the time of blood pressure measurement, column 6, blood pressure in mm (Hg), and column 7, heart rate.
*B.P. measured by tail cuff method.

The test system of data set [2] is X-5563 plasma cell myeloma. The experiment in a line: Antitumor activity vs X-5563 plasma cell myeloma in mice. The data set is classed as in vivo. The settings on record: daily for 10 days after inoculation. An excerpt: Compounds according to formula II above are also active against transplanted tumors in mice. Table II which follows gives the results of testing (d,1)-2-ethoxy-1-[(2-trimethylaminoethoxy)phosphinyloxy]-eicosane,hydroxy inner salt, (A), against several such tumors. In the table, column 1 gives the name of the tumor, column 2 the dosage levels, column 3 toxic deaths, column 4, the percent tumor growth inhibition and column 5, the dosage schedule or regimen. Ten mice were given each dosage I.P. and a group of 20 mice used as controls.
Table III gives the results obtained by comparing the activity of the racemate (d,1)-2-ethoxy-1-[(2-trimethylaminoethoxy)phosphinyloxy]eicosane,hydroxy inner salt (A), the L-(-)enantiomer (B) and the D-(+)enantiomer (C) versus X-5563, a plasma cell myeloma.

Data set [3] has as its system spontaneously hypertensive rats (SHR). The experiment in a line: Blood pressure and heart rate in spontaneously hypertensive rats, femoral artery cannula. The data set is classed as in vivo, rat. The conditions noted are these: for Blood pressure: femoral artery cannula.
Source text: as §1
**B.P. measured by femoral artery cannula.

In data set [4] the test system is carageenin-induced edema (rat paw swelling). Kind of data set: Carageenin-induced edema (acute inflammation) model, rat paw swelling. The class given is in vivo. The settings on record: 25 mg/kg oral, at 4 hours, group of 5 rats. An excerpt: It is well known that free arachidonic acid may be processed into potent inflammatory mediators such as the leukotrienes, prostaglandins, thromboxane A2 and prostacyclin. Inhibition of the release of arachidonic acid could result in a lowered inflammatory response.

Data set [5] relates to release of arachidonic acid from membrane phospholipids (rabbit neutrophils). The experiment in a line: Inhibition of release of arachidonic acid from membrane phospholipids in glycogen-elicited rabbit neutrophils. The class given is cell-based. The settings on record: A-23187 0.5 mcg/ml activation, 5 minutes pretreatment at 37° C. The protocol: In this procedure, glycogen-elicited rabbit neutrophils are labelled with ^14 C-arachidonic acid by incubation for one hour at 37° C. and followed by treatment with the compound under test at 37° C. for 5 minutes. The cells were then activated by addition of 0.5 mcg/ml of A-23187 (an ionophore) for 5 minutes. Cellular metabolism was stopped; the membrane lipids extracted; and the extracted lipids chromatographed on TLC plates. Assays were conducted for free ^14 C-arachidonic acid and hydroxy^14 C-eicosatetraenoic acid (HETES) using a radiochromatogram scanner.

The mark [6] stands for this setting: 3 mg/kg I.V., 0 hours (baseline).
[7] abbreviates: 10 mg/kg I.V., 0 hours (baseline).

Structures can show the parent of a compound that is named as a salt.

Regarding `CCCCCCCCCCCCCCCCCCOCC(COP(=O)([O-])OCC[N+](C)(C)C)OC` (stereo not drawn), the “inhibits the proliferation of leukemic cells” value with leukemic cells is “inhibits the proliferation of leukemic cells”.
As to `CCCCCCCCCCCCCCCCCC[C@H](COP(=O)([O-])OCC[N+](C)(C)C)OCC` [Compound 2, L-2-Ethoxy-1-[(2-trimethylaminoethoxy)phosphinyloxy]eicosane, hydroxy inner salt], in data set [1], the “hypotensive effects in SHR (in words)” value is “hypotensive effects”. In addition, the “Percent inhibition of Tumor growth” value turned out to be 18% in data set [2] (2.5 mg/kg), 44% in data set [2] (5 mg/kg), 53% in data set [2] (10 mg/kg) and 67% in data set [2] (20 mg/kg). The Toxic deaths is 1/10 in data set [2] (2.5 mg/kg), 1/10 in data set [2] (5 mg/kg), 0/10 in data set [2] (10 mg/kg) and 0/10 in data set [2] (20 mg/kg). The Heart Rate in data set [3] (setting [6]) came out at 340 beats/min; in data set [3] (3 mg/kg I.V., 1.0 hours), 380 beats/min; in data set [3] (3 mg/kg I.V., .08 hours), 385 beats/min; in data set [3] (3 mg/kg I.V., .25 hours) it was 367 beats/min; in data set [3] (3 mg/kg I.V., .5 hours), 370 beats/min. The Blood pressure in data set [3] (setting [6]) came to 177 mm Hg; in data set [3] (3 mg/kg I.V., 1.0 hours), 162 mm Hg; in data set [3] (3 mg/kg I.V., .08 hours), 107 mm Hg; in data set [3] (3 mg/kg I.V., .25 hours), 144 mm Hg; in data set [3] (3 mg/kg I.V., .5 hours) it was 162 mm Hg.
In the case of `CCCCCCCCCCCCCCCCCCC(COP(=O)([O-])OCC[N+](C)(C)C)OC` (racemic) [Compound 7, (d,l)-2-Methoxy-1-[(2-trimethylaminoethoxy)phosphinyloxy]eicosane, hydroxy inner salt], in data set [4], the “inhibition of rat paw swelling” value is on record as 68%. For the same molecule, in data set [5], the “inhibition of the release of arachidonic acid (AA) from phospholipids” value was 88%; the “inhibition of the total production of free AA and HETES” value worked out at 100%.
Regarding `CCCCCCCCCCCCCCCCCC[C@@H](COP(=O)([O-])OCC[N+](C)(C)C)OCC` [Compound 1, D-2-Ethoxy-1-[(2-trimethylaminoethoxy)phosphinyloxy]eicosane, hydroxy inner salt], the “Percent inhibition of Tumor growth” value in data set [2] (17 mg/kg) is 76%; in data set [2] (25 mg/kg), 95%; in data set [2] (35 mg/kg), “Toxic”; in data set [2] (50 mg/kg) it was “Toxic”. Further, the Toxic deaths was 2/10 in data set [2] (17 mg/kg), 1/10 in data set [2] (25 mg/kg), 5/10 in data set [2] (35 mg/kg) and 10/10 in data set [2] (50 mg/kg). The Heart Rate came to 326 beats/min in data set [3] (setting [6]); 376 beats/min in data set [3] (3 mg/kg I.V., 1.0 hours); 373 beats/min in data set [3] (3 mg/kg I.V., .08 hours); 400 beats/min in data set [3] (3 mg/kg I.V., .25 hours); 346 beats/min in data set [3] (3 mg/kg I.V., .5 hours); 345 beats/min in data set [3] (setting [7]). Further, the Heart Rate amounted to 355 beats/min in data set [3] (10 mg/kg I.V., 1.0 hours); 360 beats/min in data set [3] (10 mg/kg I.V., .08 hours); 360 beats/min in data set [3] (10 mg/kg I.V., .25 hours); 345 beats/min in data set [3] (10 mg/kg I.V., .5 hours). Besides, the Blood pressure in data set [3] (setting [6]) is on record as 197 mm Hg; in data set [3] (3 mg/kg I.V., 1.0 hours), 194 mm Hg; in data set [3] (3 mg/kg I.V., .08 hours), 197 mm Hg; in data set [3] (3 mg/kg I.V., .25 hours), 200 mm Hg; in data set [3] (3 mg/kg I.V., .5 hours), 188 mm Hg; in data set [3] (setting [7]), 183 mm Hg. For the same molecule, the Blood pressure in data set [3] (10 mg/kg I.V., 1.0 hours) is recorded as 178 mm Hg; in data set [3] (10 mg/kg I.V., .08 hours) it was 185 mm Hg; in data set [3] (10 mg/kg I.V., .25 hours), 184 mm Hg; in data set [3] (10 mg/kg I.V., .5 hours), 177 mm Hg.
